Measurements published in the OPERA property sets (Mansouri et al. 2018).

Settings: not given

Question: With `O=[N+]([O-])c1ccc2c(c1)Cc1cc([N+](=O)[O-])ccc1-2` as the compound, how does the melting point read?
Answer: Its melting point is 334 °C.

Question: Which melting point does the source give for `NS(=O)(=O)c1ccc(CCCCO)cc1` here?
Answer: Its melting point is 78.5 °C.

Question: What does the source list for `BrCCCCCCCCBr`?
Answer: boiling point: 271 °C; melting point: 15.5 °C

Question: Which boiling point does the source give for `C=C1CCCC1` here?
Answer: The boiling point was 75.5 °C.

Question: Which log10 Koc (L/kg) does the source give for `CCC(C)Nc1c([N+](=O)[O-])cc(C(C)(C)C)cc1[N+](=O)[O-]` (configuration not stated) here?
Answer: The log10 Koc (L/kg) was 3.98.

Question: What about the log10 vapour pressure (mmHg) of the same compound?
Answer: The log10 vapour pressure (mmHg) was -4.9.

Question: What about the melting point of the same compound?
Answer: Its melting point is 60 °C.

Question: Which melting point does the source give for `CCCOc1ccc(C(=O)O)cc1` here?
Answer: Its melting point is 145 °C.

Question: For `CC(=O)Nc1ccccc1C`, which boiling point is on record?
Answer: The boiling point was 296 °C.

Question: What about the melting point of the same compound?
Answer: Its melting point is 110 °C.

Question: Which boiling point does the source give for `[C-]#[N+]CCCC` here?
Answer: The boiling point was 120 °C.

Question: Which melting point does the source give for `CC(CCC(=O)O)n1nnc2ccccc21` (configuration not stated) here?
Answer: The melting point was 86 °C.

Question: Which melting point does the source give for `C[C@@H]1C[C@H]2[C@@H]3C[C@H](F)C4=CC(=O)C=C[C@]4(C)[C@H]3[C@@H](O)C[C@]2(C)[C@H]1C(=O)CO` here?
Answer: The melting point was 188 °C.

Question: With `O=C(OCCO)c1ccccc1O` as the compound, how does the melting point read?
Answer: Its melting point is 37 °C.

Question: Which log10 biodegradation half-life (days) does the source give for `CCC1c2ccccc2-c2ccccc21` here?
Answer: The log10 biodegradation half-life (days) was 1.46.

Question: Which melting point does the source give for `O=C(O)/C=C/c1ccccc1C(F)(F)F` here?
Answer: Its melting point is 206 °C.

Question: For `Cc1cc(C)c(C)s1`, which boiling point is on record?
Answer: Its boiling point is 164 °C.

Question: With `Cc1cc(NS(=O)(=O)c2ccc(N)cc2)sn1` as the compound, how does the melting point read?
Answer: Its melting point is 192 °C.

Question: With `C=CCc1ccc(OC)c(OC)c1` as the compound, how does the boiling point read?
Answer: The boiling point was 263 °C.

Question: What about the log10 vapour pressure (mmHg) of the same compound?
Answer: Its log10 vapour pressure (mmHg) is -1.92.

Question: What about the ready biodegradability of the same compound?
Answer: Its ready biodegradability is “readily biodegradable”.

Question: Which melting point does the source give for `O=C(O)[C@@H](O)[C@H](O)[C@H](O)[C@@H](O)C(=O)O` here?
Answer: Its melting point is 126 °C.

Question: Which boiling point does the source give for `O=S(=O)(F)c1ccccc1` here?
Answer: The boiling point was 204 °C.

Question: Which melting point does the source give for `CCC(C(=O)O)C1(O)CCCCC1` (configuration not stated) here?
Answer: Its melting point is 81.5 °C.

Question: For `NNC(=O)CCCCC(=O)NN`, which ready biodegradability is on record?
Answer: The ready biodegradability was “not readily biodegradable”.

Question: For `O=c1n(-c2ccccc2)c(=O)n(-c2ccccc2)c(=O)n1-c1ccccc1`, which melting point is on record?
Answer: Its melting point is 285 °C.

Question: For `CCOC(=O)CC#N`, which boiling point is on record?
Answer: The boiling point was 210 °C.

Question: What about the log10 vapour pressure (mmHg) of the same compound?
Answer: The log10 vapour pressure (mmHg) was -1.41.

Question: And the melting point?
Answer: The melting point was -22.5 °C.

Question: And the ready biodegradability?
Answer: The ready biodegradability was “readily biodegradable”.

Question: For `O=C(O)c1ccc(CBr)cc1`, which melting point is on record?
Answer: The melting point was 230 °C.

Question: Which melting point does the source give for `C/C=C/C#N` here?
Answer: Its melting point is -51.5 °C.

Question: With `O=COCCCc1ccccc1` as the compound, how does the boiling point read?
Answer: Its boiling point is 250 °C.

Question: For `C=CC1CCCCC1`, which boiling point is on record?
Answer: The boiling point was 128 °C.

Question: With `O=C(O)c1cc2ccccc2cc1O` as the compound, how does the melting point read?
Answer: The melting point was 222 °C.

Question: What about the ready biodegradability of the same compound?
Answer: Its ready biodegradability is “not readily biodegradable”.

Question: What does the source list for `Cc1ccnc(C)c1`?
Answer: boiling point: 158 °C; log10 Henry constant (atm·m³/mol): -5.17; log10 vapour pressure (mmHg): 0.5; melting point: -64 °C; ready biodegradability: readily biodegradable

Question: With `CNC(=O)Oc1cccc2c1OC(C)(C)C2` as the compound, how does the log10 Koc (L/kg) read?
Answer: Its log10 Koc (L/kg) is 1.75.

Question: What about the log10 vapour pressure (mmHg) of the same compound?
Answer: Its log10 vapour pressure (mmHg) is -5.31.

Question: What about the melting point of the same compound?
Answer: The melting point was 151 °C.

Question: For `C=CC(=O)OCCn1c(=O)n(CCOC(=O)C=C)c(=O)n(CCOC(=O)C=C)c1=O`, which ready biodegradability is on record?
Answer: The ready biodegradability was “not readily biodegradable”.

Question: Which melting point does the source give for `Cc1ccc2c(c1)C(=O)c1ccccc1C2=O` here?
Answer: Its melting point is 177 °C.

Question: What does the source list for `Cc1ccc(C)s1`?
Answer: boiling point: 136 °C; log10 vapour pressure (mmHg): 0.994; melting point: -62.6 °C

Question: For `Fc1ccncc1`, which boiling point is on record?
Answer: The boiling point was 109 °C.

Question: Which boiling point does the source give for `CC(I)I` here?
Answer: Its boiling point is 180 °C.

Question: Which melting point does the source give for `CC(C)OC(=O)COc1cc(Cl)c(Cl)cc1Cl` here?
Answer: Its melting point is 45 °C.

Question: For `N#Cc1nc(C#N)nc(C#N)n1`, which boiling point is on record?
Answer: Its boiling point is 262 °C.

Question: What about the melting point of the same compound?
Answer: Its melting point is 119 °C.

Question: Which results are given for `CO/N=C(/C(=O)OC)c1ccccc1COc1ccccc1C`?
Answer: log10 vapour pressure (mmHg): -7.76; melting point: 99 °C

Question: For `CC(=O)c1c[nH]c2ccccc12`, which melting point is on record?
Answer: Its melting point is 192 °C.

Question: With `CC(C)OC(=O)CCl` as the compound, how does the boiling point read?
Answer: Its boiling point is 150 °C.

Question: What about the log10 vapour pressure (mmHg) of the same compound?
Answer: The log10 vapour pressure (mmHg) was 0.613.

Question: With `CN[C@@H](C)[C@@H](O)c1ccccc1` as the compound, how does the melting point read?
Answer: The melting point was 90.5 °C.

Question: Which results are given for `Cc1ccc(O)c(C)c1`?
Answer: boiling point: 211 °C; log10 Henry constant (atm·m³/mol): -6.02; log10 vapour pressure (mmHg): -0.991; melting point: 24.5 °C; ready biodegradability: readily biodegradable

Question: For `CCOC(=O)CCC(=O)CC1(O)C2(Cl)C3(Cl)C4(Cl)C(Cl)(Cl)C5(Cl)C3(Cl)C1(Cl)C5(Cl)C42Cl` (configuration not stated), which melting point is on record?
Answer: The melting point was 91 °C.

Question: With `CC1=NNC(=O)C1` as the compound, how does the melting point read?
Answer: Its melting point is 221 °C.

Question: For `CCOc1cccc2ccccc12`, which boiling point is on record?
Answer: The boiling point was 280 °C.

Question: And the melting point?
Answer: The melting point was 5.5 °C.

Question: Which melting point does the source give for `OCC(CO)(CBr)CBr` here?
Answer: Its melting point is 113 °C.

Question: What about the ready biodegradability of the same compound?
Answer: Its ready biodegradability is “not readily biodegradable”.

Question: For `O=C(C(Br)Br)C(Br)(Br)Br`, which melting point is on record?
Answer: Its melting point is 79.5 °C.

Question: For `CC/C=C(\C)C(=O)O`, which boiling point is on record?
Answer: Its boiling point is 214 °C.

Question: And the melting point?
Answer: The melting point was 24.4 °C.

Question: Which boiling point does the source give for `c1cc2ccc3cccc4ccc(c1)c2c34` here?
Answer: Its boiling point is 404 °C.

Question: What about the log10 Henry constant (atm·m³/mol) of the same compound?
Answer: The log10 Henry constant (atm·m³/mol) was -4.92.

Question: What about the log10 Koa of the same compound?
Answer: Its log10 Koa is 8.8.

Question: And the log10 Koc (L/kg)?
Answer: Its log10 Koc (L/kg) is 4.9.

Question: And the log10 biodegradation half-life (days)?
Answer: The log10 biodegradation half-life (days) was 2.37.

Question: And the log10 vapour pressure (mmHg)?
Answer: The log10 vapour pressure (mmHg) was -5.35.

Question: And the melting point?
Answer: Its melting point is 151 °C.

Question: With `COCC(COC)OC` as the compound, how does the boiling point read?
Answer: Its boiling point is 148 °C.

Question: With `Cn1cccc1` as the compound, how does the boiling point read?
Answer: Its boiling point is 115 °C.

Question: And the log10 vapour pressure (mmHg)?
Answer: The log10 vapour pressure (mmHg) was 1.33.

Question: What about the ready biodegradability of the same compound?
Answer: Its ready biodegradability is “readily biodegradable”.

Question: For `Cc1ccc2ccccc2c1N`, which melting point is on record?
Answer: The melting point was 32 °C.

Question: For `CCC(=O)O[C@](Cc1ccccc1)(c1ccccc1)[C@H](C)CN(C)C`, which melting point is on record?
Answer: The melting point was 75.5 °C.

Question: For `CCCCON=O`, which boiling point is on record?
Answer: The boiling point was 78 °C.

Question: For `Cc1csc(C)c1`, which boiling point is on record?
Answer: Its boiling point is 141 °C.

Question: For `CCCN.Cl`, which melting point is on record?
Answer: Its melting point is 161 °C.

Same assay, conditions: […]

Question: With `C=C/C(C)=C\CC=C(C)C` as the compound, how does the log10 OH rate constant (cm³/molecule/s) read?
Answer: The log10 OH rate constant (cm³/molecule/s) was -9.6.

Same assay, conditions: fish

Question: For `Clc1cc(Cl)c(-c2c(Cl)c(Cl)c(Cl)c(Cl)c2Cl)c(Cl)c1Cl`, which log10 biotransformation half-life (days) is on record?
Answer: The log10 biotransformation half-life (days) was 2.66.

Question: Which log10 biotransformation half-life (days) does the source give for `C[Si]1(C)O[Si](C)(C)O[Si](C)(C)O[Si](C)(C)O[Si](C)(C)O1` here?
Answer: The log10 biotransformation half-life (days) was 2.74.

Question: With `CC1=NN(c2cc(Cl)c(S(=O)(=O)O)cc2Cl)C(=O)C1` as the compound, how does the log10 BCF read?
Answer: The log10 BCF was 1.51.

Question: Which log10 BCF does the source give for `O=C(O)c1cc2ccccc2cc1O` here?
Answer: Its log10 BCF is 0.6.

Question: Which results are given for `OCC(CO)(CBr)CBr`?
Answer: log10 BCF: 0.68; log10 biotransformation half-life (days): -1.4

Question: For `c1cc2ccc3cccc4ccc(c1)c2c34`, which log10 BCF is on record?
Answer: The log10 BCF was 3.18.

Question: What about the log10 biotransformation half-life (days) of the same compound?
Answer: Its log10 biotransformation half-life (days) is 0.32.

Question: Which log10 BCF does the source give for `CC(C)(c1ccc(OC(F)(F)C(F)F)cc1)c1ccc(OC(F)(F)C(F)F)cc1` here?
Answer: Its log10 BCF is 4.35.

Question: And the log10 biotransformation half-life (days)?
Answer: Its log10 biotransformation half-life (days) is 2.79.
